# Reference: PMC9200736, “Complete biosynthetic pathway to the antidiabetic drug acarbose” (Nature Communications, 2022)
# How the values were obtained:
# ValC = target: T1, ValC (Streptomyces hygroscopicus, UniProt Q3T6E2); test: preparative phosphorylation, conversion by PK/LDH assay; assay type: biochemical; settings: ATP 6 mM, MgCl2 5 mM, Tris-HCl pH 7.5, 30 °C, 6 h
# T1 construct: recombinant from pRSETB-valC in E. coli BL21(DE3)/pLysS, Ni-NTA purified
# T1 sequence (Q3T6E2 1-351): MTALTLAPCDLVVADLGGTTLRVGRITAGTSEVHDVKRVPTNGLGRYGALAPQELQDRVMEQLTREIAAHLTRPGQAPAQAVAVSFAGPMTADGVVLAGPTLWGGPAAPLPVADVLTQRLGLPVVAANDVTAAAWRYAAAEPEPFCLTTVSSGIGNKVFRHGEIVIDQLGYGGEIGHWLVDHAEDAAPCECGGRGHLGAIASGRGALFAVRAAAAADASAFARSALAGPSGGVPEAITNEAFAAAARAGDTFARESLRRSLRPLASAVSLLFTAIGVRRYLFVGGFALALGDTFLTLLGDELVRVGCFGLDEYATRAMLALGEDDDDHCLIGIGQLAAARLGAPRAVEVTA
# AcbU = target: T2, AcbU (Actinoplanes sp. SE50/110, UniProt Q27GS3); test: PK/LDH coupled assay, A340; LC-MS of product; assay type: biochemical; settings: ATP […], MgCl2 […], Tris-HCl pH […] °C; substrate […]
# T2 construct: recombinant from pRSET-B in E. coli BL21(DE3)/pLysS, Ni-NTA purified
# T2 sequence (Q27GS3 1-492): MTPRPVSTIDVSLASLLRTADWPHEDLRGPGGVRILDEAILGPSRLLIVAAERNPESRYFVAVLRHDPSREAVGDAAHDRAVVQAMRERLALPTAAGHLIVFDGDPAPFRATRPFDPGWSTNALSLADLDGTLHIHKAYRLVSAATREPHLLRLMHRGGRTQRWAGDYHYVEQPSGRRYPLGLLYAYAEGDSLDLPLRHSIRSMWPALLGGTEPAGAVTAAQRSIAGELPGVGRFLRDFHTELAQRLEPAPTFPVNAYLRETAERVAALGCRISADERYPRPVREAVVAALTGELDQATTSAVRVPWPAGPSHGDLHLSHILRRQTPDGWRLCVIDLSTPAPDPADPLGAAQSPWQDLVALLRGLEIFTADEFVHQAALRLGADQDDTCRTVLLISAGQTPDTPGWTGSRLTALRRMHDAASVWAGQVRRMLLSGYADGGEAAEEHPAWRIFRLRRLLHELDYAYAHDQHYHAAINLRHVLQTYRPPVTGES
# AcbK = target: T3, AcbK (Actinoplanes sp. SE50/110, UniProt Q8RMD4); test: preparative phosphorylation, conversion by PK/LDH assay; assay type: biochemical; settings: ATP 6 mM, MgCl2 5 mM, Tris-HCl pH 7.5, 30 °C, 6 h
# T3 construct: recombinant from pET28b in E. coli BL21(DE3)/pLysS, Ni-NTA purified
# AcbS = target: T4, AcbS (Actinoplanes sp. SE50/110, UniProt Q27GS2); test: LC-QTOF/MS and MS/MS of product acarbose; assay type: biochemical; settings: GDP-V generated in situ by AcbR from V1P and GTP; 4-aminoDGG […], MgCl2 […], pH […] °C, […] h
# T4 construct: recombinant from pRSET-B in E. coli BL21(DE3)/pLysS, Ni-NTA purified
# T4 sequence (Q27GS2 1-709): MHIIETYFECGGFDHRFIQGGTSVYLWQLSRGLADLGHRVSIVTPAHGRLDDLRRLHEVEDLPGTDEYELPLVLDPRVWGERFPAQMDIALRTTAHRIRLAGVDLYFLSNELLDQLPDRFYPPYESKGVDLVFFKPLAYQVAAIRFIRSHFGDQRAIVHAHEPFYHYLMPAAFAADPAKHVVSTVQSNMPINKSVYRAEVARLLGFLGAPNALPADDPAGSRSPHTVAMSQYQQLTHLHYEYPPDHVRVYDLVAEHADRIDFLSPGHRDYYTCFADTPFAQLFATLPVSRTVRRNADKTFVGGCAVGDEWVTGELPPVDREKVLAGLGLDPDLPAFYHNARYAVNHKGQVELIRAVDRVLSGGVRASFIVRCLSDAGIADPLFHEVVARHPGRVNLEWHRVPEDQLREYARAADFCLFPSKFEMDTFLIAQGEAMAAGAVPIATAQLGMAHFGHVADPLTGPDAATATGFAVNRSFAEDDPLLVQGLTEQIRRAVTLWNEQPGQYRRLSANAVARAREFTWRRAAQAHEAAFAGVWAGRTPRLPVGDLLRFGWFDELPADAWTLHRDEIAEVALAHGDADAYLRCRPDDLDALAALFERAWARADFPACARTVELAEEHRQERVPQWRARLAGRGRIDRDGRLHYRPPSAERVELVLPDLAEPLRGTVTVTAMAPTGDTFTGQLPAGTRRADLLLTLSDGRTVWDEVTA
# [1] = tested on: O=P(O)(O)OCC1=C[C@H](OP(=O)(O)O)[C@H](O)[C@@H](O)[C@@H]1O; test: purified protein; settings: Tris-HCl 20 mM pH 7.5, 30 °C, AcbJ 1.0 µM
# [2] = tested on: O=P(O)(O)O[C@H]1C=C(CO)[C@@H](O)[C@H](O)[C@H]1O; test: purified protein; settings: GTP 1 mM, MgCl2 1 mM, Tris-HCl pH 7.5, 30 °C, AcbR 1.0 µM
# T3 sequence (Q8RMD4 whole entry): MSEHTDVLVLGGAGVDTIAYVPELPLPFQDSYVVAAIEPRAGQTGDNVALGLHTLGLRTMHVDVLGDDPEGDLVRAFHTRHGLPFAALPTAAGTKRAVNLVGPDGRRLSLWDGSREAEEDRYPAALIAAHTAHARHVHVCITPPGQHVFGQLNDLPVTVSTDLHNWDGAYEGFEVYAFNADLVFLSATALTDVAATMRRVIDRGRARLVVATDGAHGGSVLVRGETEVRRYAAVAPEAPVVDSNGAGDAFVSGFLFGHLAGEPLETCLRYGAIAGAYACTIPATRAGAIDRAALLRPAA
compound,measurement,setting,value
OCC1=C[C@H](O)[C@H](O)[C@@H](O)[C@@H]1O [V],"preparative phosphorylation, conversion by PK/LDH assay",ValC,phosphorylation of synthetically prepared valienol using the cyclitol kinase ValC
same,"PK/LDH coupled assay, A340; LC-MS of product",AcbU,AcbU can also phosphorylate valienol (V)
"C[C@H]1O[C@H](O[C@H]2[C@H](O)[C@@H](O)[C@@H](O[C@H]3[C@H](O)[C@@H](O)C(O)O[C@@H]3CO)O[C@@H]2CO)[C@H](O)[C@@H](O)[C@@H]1N[C@H]1C=C(CO)[C@@H](O)[C@H](O)[C@H]1O (stereo partly drawn) [compound 1, acarbose]","preparative phosphorylation, conversion by PK/LDH assay",AcbK,prepared enzymatically from acarbose and ATP using the acarbose kinase AcbK
"O=P(O)(O)OCC1=C[C@H](O)[C@H](O)[C@@H](O)[C@@H]1O [compound 12, V7P]","PK/LDH coupled assay, A340; LC-MS of product",AcbU,"V7P is a preferred substrate for AcbU to produce V1,7PP"
"Nc1nc2c(ncn2[C@@H]2O[C@H](COP(=O)(O)OP(=O)(O)O[C@H]3C=C(CO)[C@@H](O)[C@H](O)[C@H]3O)[C@@H](O)[C@H]2O)c(=O)[nH]1 [compound 16, GDP-V]",LC-QTOF/MS and MS/MS of product acarbose,AcbS,incubation of recombinant AcbS with GDP-V (generated in situ
AcbJ (Actinoplanes sp. SE50/110),Km,[1],817 ± 168 µM
same,kcat,[1],0.367 ± 0.067 s⁻¹
AcbR (Actinoplanes sp. SE50/110),Km,[2],412 ± 83 µM
same,kcat,[2],0.233 ± 0.017 s⁻¹
